Results from patent US20210040041A1, “QUINOLINE DERIVATIVES AND PREPARATION METHODS AND USES THEREOF” (DONGGUAN HEC PESTICIDES R&D CO., LTD., priority 2018, published 2021).

How the values were obtained:
Assay type in all cases: in vivo
Armyworm [1] = assay: Test examples 3: leaf dipping method, cabbage, Armyworm; conditions: after 3 days
Description: A certain amount of compound (0.0001 g) was weighed by using an analytical balance, and prepared to a mother liquid (1) with N,N-dimethylformamide containing 1% Tween-80 emulsifier, and then the other liquid was diluted with distilled water or standby.
(§1) Leaf dipping method: an appropriate amount of cabbage was infiltrated in the prepared liquid and dried in the shade naturally, and then placed in a culture dish with filter paper; Armyworm/Diamondback moth larvae in the 2-3rd instar were inoculated, 10 heads per dish, and the dishes were cultured in an observation room at 24-27° C. The results were investigated after 3 days. […] The test concentrations were 50 mg/L, 25 mg/L, 12.5 mg/L, 6.25 mg/L, 3.13 mg/L, 1.56 mg/L.

Diamondback moth = assay: Test examples 2: leaf dipping method, Diamondback moth; conditions: Plutella xylostella, foliar, 72 h, after 3 days, read-out: The mortality rate (%) of the compound to Diamondback moth; for mortality at 12.5 µg/mL: 12.5 mg/L; for mortality at 25 µg/mL: 25 mg/L; for mortality at 50 µg/mL: 50 mg/L
Description: (§2) A certain amount of compound (0.0001 g) was weighed by using an analytical balance, and prepared to a mother liquid (1%) with N, N-dimethylformamide containing 1% Tween-80 emulsifier, and then the mother liquid was diluted with distilled water for standby.
as §1, with “corn leaves/cabbage/cowpea were” for “cabbage was”, “armyworm/Diamondback moth/Beet Armyworm” for “Armyworm/Diamondback moth”, “inoculated to the corn leaves,” for “inoculated,”

Armyworm [2] = assay: Test examples 2: leaf dipping method, Armyworm; conditions: Mythimna separata, foliar, 72 h, after 3 days, read-out: The mortality rate (%) of the compound to Armyworm; for mortality at 12.5 µg/mL: 12.5 mg/L; for mortality at 25 µg/mL: 25 mg/L; for mortality at 50 µg/mL: 50 mg/L
Description: as §2
as §1, with “corn leaves/cabbage/cowpea were” for “cabbage was”, “armyworm/Diamondback moth/Beet Armyworm” for “Armyworm/Diamondback moth”, “inoculated to the corn leaves,” for “inoculated,”

[3] = test system: Frankliniella occidentalis; assay: Test examples 2: spraying of cowpea leaf discs, Frankliniella occidentalis; conditions: foliar, 24 h, after 1 day, read-out: The mortality rate (%) of the compound to Frankliniella occidentalis; for mortality at 5 µg/mL: 5 mg/L; for mortality at 10 µg/mL: 10 mg/L; for mortality at 20 µg/mL: 20 mg/L
Description: as §2
Spraying: cowpea leaves growing uniformity were punched with a punching bear to make leaf discs, leaf discs were placed onto degreased cotton blocks in a dish, two leaf discs per dish, and water was added into the dish and it was flush with the leaf discs, and the dish was for standby. Frankliniella occidentalis in the 2-3rd instar were inoculated to the ready leaf discs, more than 15 per disc. Which were spayed under Potter spray tower at a dose of 0.5 mL per treatment. The blank control was treated first, and then the above operations were repeated in the order of the test dose from low to high, with 2 repeats per treatment. After treatment, the samples were placed in the observation room, and the results were investigated 1 day later. […] The test concentrations were 20 mg/L, 10 mg/L, 5.0 mg/L, 2.5 mg/L, 1.25 mg/L, 0.625 mg/L.

Beet Armyworm = assay: Test examples 2: leaf dipping method, Beet Armyworm; conditions: Spodoptera exigua, foliar, 72 h, after 3 days, read-out: The mortality rate (%) of the compound to Beet Armyworm; for mortality at 12.5 µg/mL: 12.5 mg/L; for mortality at 25 µg/mL: 25 mg/L; for mortality at 50 µg/mL: 50 mg/L
Description: as §2
as §1, with “corn leaves/cabbage/cowpea were” for “cabbage was”, “armyworm/Diamondback moth/Beet Armyworm” for “Armyworm/Diamondback moth”, “inoculated to the corn leaves,” for “inoculated,”

2-ethyl-3,5,7-trimethyl-6-(4-(trifluoromethoxy)phenoxy)quinolin-4-ol [compound (42)]
The mortality rate (%) to Armyworm (Armyworm [1]; 12.5 mg/L): 80% | The mortality rate (%) to Armyworm (Armyworm [1]; 25 mg/L): 85% | The mortality rate (%) to Armyworm (Armyworm [1]; 50 mg/L): 95%

CCc1nc2cc(C)c(Oc3ccc(C(C)(C)C)cc3)cc2c(OC(=O)OCCOC)c1C [Example 4, 6-(4-(tert-butyl)phenoxy)-2-ethyl-3,7-dimethylquinolin-4-yl (2-methoxyethyl)carbonate]
mortality at 12.5 µg/mL (Diamondback moth): 90% | mortality at 25 µg/mL (Diamondback moth): 100% | mortality at 50 µg/mL (Diamondback moth): 100% | mortality at 12.5 µg/mL (Armyworm [2]): 80% | mortality at 25 µg/mL (Armyworm [2]): 90% | mortality at 50 µg/mL (Armyworm [2]): 100%

CCc1nc2cc(C)c(Oc3ccc(OC(F)(F)F)cc3)cc2c(OC(=O)OCCOCCOC)c1C [Example 7]
mortality at 12.5 µg/mL (Diamondback moth): 85% | mortality at 25 µg/mL (Diamondback moth): 90% | mortality at 50 µg/mL (Diamondback moth): 100% | mortality at 12.5 µg/mL (Armyworm [2]): 100% | mortality at 25 µg/mL (Armyworm [2]): 100% | mortality at 50 µg/mL (Armyworm [2]): 100% | mortality at 5 µg/mL [3]: 95% | mortality at 10 µg/mL [3]: 100% | mortality at 20 µg/mL [3]: 100% | mortality at 12.5 µg/mL (Beet Armyworm): 80% | mortality at 25 µg/mL (Beet Armyworm): 100% | mortality at 50 µg/mL (Beet Armyworm): 100%

CCc1nc2cc(C)c(Oc3ccc(OC(F)(F)F)cc3)cc2c(OC(=O)OCC2CCCO2)c1C (stereo not drawn) [Example 8]
mortality at 12.5 µg/mL (Diamondback moth): 93% | mortality at 25 µg/mL (Diamondback moth): 100% | mortality at 50 µg/mL (Diamondback moth): 100% | mortality at 12.5 µg/mL (Armyworm [2]): 100% | mortality at 25 µg/mL (Armyworm [2]): 100% | mortality at 50 µg/mL (Armyworm [2]): 100% | mortality at 5 µg/mL [3]: 85% | mortality at 10 µg/mL [3]: 100% | mortality at 20 µg/mL [3]: 100% | mortality at 12.5 µg/mL (Beet Armyworm): 70% | mortality at 25 µg/mL (Beet Armyworm): 95% | mortality at 50 µg/mL (Beet Armyworm): 100%

CCOCCOC(=O)Oc1c(C)c(CC)nc2cc(C)c(Oc3ccc(OC(F)(F)F)cc3)cc12 [Example 17, 2-ethoxyethyl (2-ethyl-3,7-dimethyl-6-(4-(trifluoromethoxy)phenoxy)quinolin-4-yl) carbonate]
mortality at 12.5 µg/mL (Diamondback moth): 100% | mortality at 25 µg/mL (Diamondback moth): 100% | mortality at 50 µg/mL (Diamondback moth): 100% | mortality at 12.5 µg/mL (Armyworm [2]): 100% | mortality at 25 µg/mL (Armyworm [2]): 100% | mortality at 50 µg/mL (Armyworm [2]): 100%

CCc1nc2cc(C)c(Oc3ccc(OC(F)(F)F)cc3)c(C)c2c(OC(=O)OCCOC)c1C [Example 18, 2-ethyl-3,5,7-trimethyl-6-(4-(trifluoromethoxy)phenoxy)quinolin-4-yl (2-methoxyethyl) carbonate]
mortality at 12.5 µg/mL (Diamondback moth): 100% | mortality at 25 µg/mL (Diamondback moth): 100% | mortality at 50 µg/mL (Diamondback moth): 100% | mortality at 12.5 µg/mL (Armyworm [2]): 100% | mortality at 25 µg/mL (Armyworm [2]): 100% | mortality at 50 µg/mL (Armyworm [2]): 100% | mortality at 5 µg/mL [3]: 100% | mortality at 10 µg/mL [3]: 100% | mortality at 20 µg/mL [3]: 100% | mortality at 12.5 µg/mL (Beet Armyworm): 90% | mortality at 25 µg/mL (Beet Armyworm): 100% | mortality at 50 µg/mL (Beet Armyworm): 100%

CCc1nc2ccc(Oc3ccc(C(C)(C)C)cc3)c(C)c2c(OC(=O)OCCOC)c1C [Example 22, 6-(4-(tert-butyl)phenoxy)-2-ethyl-3,5-dimethylquinolin-4-yl (2-methoxyethyl) carbonate]
mortality at 12.5 µg/mL (Diamondback moth): 85% | mortality at 25 µg/mL (Diamondback moth): 90% | mortality at 50 µg/mL (Diamondback moth): 100% | mortality at 12.5 µg/mL (Armyworm [2]): 80% | mortality at 25 µg/mL (Armyworm [2]): 95% | mortality at 50 µg/mL (Armyworm [2]): 100%

CCc1nc2cc(C)c(Oc3ccc(C(C)(C)C)cc3)c(C)c2c(OC(=O)OCCOC)c1C [Example 26, 6-(4-(tert-butyl)phenoxy)-2-ethyl-3,5,7-trimethylquinolin-4-yl (2-methoxyethyl) carbonate]
mortality at 12.5 µg/mL (Diamondback moth): 85% | mortality at 25 µg/mL (Diamondback moth): 95% | mortality at 50 µg/mL (Diamondback moth): 100% | mortality at 12.5 µg/mL (Armyworm [2]): 90% | mortality at 25 µg/mL (Armyworm [2]): 100% | mortality at 50 µg/mL (Armyworm [2]): 100%

CCc1nc2ccc(Oc3ccc(C(C)(C)C)cc3)c(C)c2c(OC(=O)OCC2CCCO2)c1C (stereo not drawn) [Example 35, 6-(4-(tert-butyl)phenoxy)-2-ethyl-3,5-dimethylquinolin-4-yl ((tetrahydrofuran-2-yl)methyl) carbonate]
mortality at 12.5 µg/mL (Diamondback moth): 80% | mortality at 25 µg/mL (Diamondback moth): 90% | mortality at 50 µg/mL (Diamondback moth): 100% | mortality at 12.5 µg/mL (Armyworm [2]): 80% | mortality at 25 µg/mL (Armyworm [2]): 95% | mortality at 50 µg/mL (Armyworm [2]): 100%

CCc1nc2cc(C)c(Oc3ccc(C(C)(C)C)cc3)c(C)c2c(OC(=O)OCC2CCCO2)c1C (stereo not drawn) [Example 36, 6-(4-(tert-butyl)phenoxy)-2-ethyl-3,5,7-trimethylquinolin-4-yl ((tetrahydrofuran-2-yl)methyl) carbonate]
mortality at 12.5 µg/mL (Diamondback moth): 85% | mortality at 25 µg/mL (Diamondback moth): 95% | mortality at 50 µg/mL (Diamondback moth): 100% | mortality at 12.5 µg/mL (Armyworm [2]): 90% | mortality at 25 µg/mL (Armyworm [2]): 100% | mortality at 50 µg/mL (Armyworm [2]): 100%

CCc1nc2cc(C)c(Oc3ccc(OC(F)(F)F)cc3)c(C)c2c(OC(=O)OCC2CCCO2)c1C (stereo not drawn) [Example 37]
mortality at 12.5 µg/mL (Diamondback moth): 95% | mortality at 25 µg/mL (Diamondback moth): 100% | mortality at 50 µg/mL (Diamondback moth): 100% | mortality at 12.5 µg/mL (Armyworm [2]): 100% | mortality at 25 µg/mL (Armyworm [2]): 100% | mortality at 50 µg/mL (Armyworm [2]): 100% | mortality at 5 µg/mL [3]: 95% | mortality at 10 µg/mL [3]: 100% | mortality at 20 µg/mL [3]: 100% | mortality at 12.5 µg/mL (Beet Armyworm): 75% | mortality at 25 µg/mL (Beet Armyworm): 100% | mortality at 50 µg/mL (Beet Armyworm): 100%

CCc1nc2ccc(Oc3ccc(OC(F)(F)F)cc3)c(C)c2c(OC(=O)OCC2CCCO2)c1C (stereo not drawn) [Example 38]
mortality at 12.5 µg/mL (Diamondback moth): 92% | mortality at 25 µg/mL (Diamondback moth): 100% | mortality at 50 µg/mL (Diamondback moth): 100% | mortality at 12.5 µg/mL (Armyworm [2]): 90% | mortality at 25 µg/mL (Armyworm [2]): 100% | mortality at 50 µg/mL (Armyworm [2]): 100% | mortality at 5 µg/mL [3]: 90% | mortality at 10 µg/mL [3]: 100% | mortality at 20 µg/mL [3]: 100% | mortality at 12.5 µg/mL (Beet Armyworm): 70% | mortality at 25 µg/mL (Beet Armyworm): 100% | mortality at 50 µg/mL (Beet Armyworm): 100%

CCc1nc2ccc(Oc3ccc(OC(F)(F)F)cc3)c(C)c2c(OC(=O)OCCOC)c1C [Example 39, 2-ethyl-3,5-dimethyl-6-(4-(trifluoromethoxy)phenoxy)quinolin-4-yl (2-methoxyethyl) carbonate]
mortality at 12.5 µg/mL (Diamondback moth): 100% | mortality at 25 µg/mL (Diamondback moth): 100% | mortality at 50 µg/mL (Diamondback moth): 100% | mortality at 12.5 µg/mL (Armyworm [2]): 100% | mortality at 25 µg/mL (Armyworm [2]): 100% | mortality at 50 µg/mL (Armyworm [2]): 100%

CCOCCOC(=O)Oc1c(C)c(CC)nc2cc(C)c(Oc3ccc(OC(F)(F)F)cc3)c(C)c12 [Example 40, 2-ethoxyethyl (2-ethyl-3,5,7-trimethyl-6-(4-(trifluoromethoxy)phenoxy)quinolin-4-yl) carbonate]
mortality at 12.5 µg/mL (Diamondback moth): 95% | mortality at 25 µg/mL (Diamondback moth): 100% | mortality at 50 µg/mL (Diamondback moth): 100% | mortality at 12.5 µg/mL (Armyworm [2]): 95% | mortality at 25 µg/mL (Armyworm [2]): 100% | mortality at 50 µg/mL (Armyworm [2]): 100%

CCc1nc2cc(C)c(Oc3ccc(OC(F)(F)F)cc3)c(C)c2c(OC(=O)OCCOC(C)C)c1C [Example 41, 2-ethyl-3,5,7-trimethyl-6-(4-(trifluoromethoxy)phenoxy)quinolin-4-yl (2-isopropoxyethyl) carbonate]
mortality at 12.5 µg/mL (Diamondback moth): 90% | mortality at 25 µg/mL (Diamondback moth): 100% | mortality at 50 µg/mL (Diamondback moth): 100% | mortality at 12.5 µg/mL (Armyworm [2]): 80% | mortality at 25 µg/mL (Armyworm [2]): 100% | mortality at 50 µg/mL (Armyworm [2]): 100%
